Some targets named below: PLA2G4A; SMAD3; SMAD1; EGR1.
Common to all, as to conditions: ASO

These antisense oligonucleotides have a phosphorothioate backbone; sugars and methylation of C are not fully specified.
Note: test concentration or dose not given here.

GAAAAGAGGTAAAGGGCA yielded a remaining target (mRNA or protein) (fraction of control) with PLA2G4A of at least 1. On to GAACACGCACCTCCCAAT, for which the remaining target (mRNA or protein) (fraction of control) with SMAD3 came to 0.4. Regarding GAACCAGAAACGCCCAAA, in the data set with PLA2G4A, the remaining target (mRNA or protein) (fraction of control) is at least 1.

Consider GAACTCCTGGTTGTTGAA, for which, in the data set with SMAD3, the remaining target (mRNA or protein) (fraction of control) is at least 1.

Turning to GAGCCGCTCGGCCTCTCC, in the data set with SMAD1, the remaining target (mRNA or protein) (fraction of control) is 0.23. GAGGCACTCTGCGAAGAC came in with a remaining target (mRNA or protein) (fraction of control) in the data set with SMAD3 of 0.49. As to GATGATGGTTGGGCAATC, the remaining target (mRNA or protein) (fraction of control) in the data set with PLA2G4A is at least 1.

In the data set with PLA2G4A, GATGGTTGGGCAATCTTT gave a remaining target (mRNA or protein) (fraction of control) of at least 1. The sequence GCAGCTCAAGGCCTTTTC returned a remaining target (mRNA or protein) (fraction of control) with SMAD1 of 0.58. For GCCCAAAACTCTGTTGAA, the remaining target (mRNA or protein) (fraction of control) in the data set with PLA2G4A came to 0.

On to GCCCTGGTTGACCGACTG, for which, in the data set with SMAD3, the remaining target (mRNA or protein) (fraction of control) amounted to 0.83. The same measure, in the same setting: the result for GCCTTCTCGCACCATTTC reads 0.92; that for GCGAGGCGTGGAATGTCT, 0.54.

GCGCTGGTTACAGTTGGG: in the data set with SMAD3, the remaining target (mRNA or protein) (fraction of control) was at least 1. GCGTGGCACCAACACAGG returned a remaining target (mRNA or protein) (fraction of control) with SMAD3 of at least 1. In the case of GCTGGACTTGTAAAGGAA, the remaining target (mRNA or protein) (fraction of control) with SMAD1 came out at 0.57. GGAGGGCGTGCGGGCGGC returned a remaining target (mRNA or protein) (fraction of control) in the data set with SMAD3 of at least 1. Consider GGCTGTAGTCGTCCAGTG, for which the remaining target (mRNA or protein) (fraction of control) in the data set with SMAD3 was found to be 0.65.

The sequence GGGAAGTTAGTGTTTTCG showed a remaining target (mRNA or protein) (fraction of control) in the data set with SMAD3 of at least 1. On the same count and under the same terms, then GGGTCGGTGAAGCCATCC, with at least 1; and GGTAGGGATTCACGCAGA, with 0.92. In turn, GGTTGGGCAATCTTTCTC had a remaining target (mRNA or protein) (fraction of control) with PLA2G4A of at least 1. On to GTAGGTGCTGCTGCTGCT, for which, in the data set with SMAD1, the remaining target (mRNA or protein) (fraction of control) was determined as 0.49.

Regarding GTCCAGAAGAGTAGAAAT, the remaining target (mRNA or protein) (fraction of control) with SMAD1 was found to be 0.44. Turning to GTGAACCAGAAACGCCCA, the remaining target (mRNA or protein) (fraction of control) with PLA2G4A was at least 1. As to GTGCGGGCGGCGAGGAGC, the remaining target (mRNA or protein) (fraction of control) with SMAD3 is 0.86. The sequence GTTCATTTTAGCCCACTT displayed a remaining target (mRNA or protein) (fraction of control) with PLA2G4A of at least 1. In the data set with PLA2G4A, TAAATGTGAGCCCACTGT came in with a remaining target (mRNA or protein) (fraction of control) of at least 1.

As for TAACATTGGAGAGCAGCC, the remaining target (mRNA or protein) (fraction of control) in the data set with SMAD1 turned out to be 0.29. TCCATGGTTCACAGACTG had a remaining target (mRNA or protein) (fraction of control) with SMAD1 of 0.2. As for TCCTTCTGCTTGGAACCA, the remaining target (mRNA or protein) (fraction of control) with SMAD1 turned out to be 0.3.

Consider TCGCCCTGTTTCCACCCA, for which the remaining target (mRNA or protein) (fraction of control) with SMAD1 was found to be 0.1. For TCGGGAGCCATAAAAGTA, the remaining target (mRNA or protein) (fraction of control) with PLA2G4A was at least 1. In the case of TCTGGTGGTCACTGGTTT, in the data set with SMAD3, the remaining target (mRNA or protein) (fraction of control) is 0.64. For TCTTCTTCCTTGACAACA, in the data set with SMAD3, the remaining target (mRNA or protein) (fraction of control) came to 0.92. Still for that read-out and setting: the result for TCTTGAGTTTCTTGACCA reads at least 1. TGAAACCATCCACCAACA registered a remaining target (mRNA or protein) (fraction of control) in the data set with SMAD1 of 0.3.

TGACTCATCCATCCTTCA showed a remaining target (mRNA or protein) (fraction of control) with SMAD1 of 0.19.

In the case of TGAGATTCAAGCCCAGCA, in the data set with PLA2G4A, the remaining target (mRNA or protein) (fraction of control) turned out to be 0.41. With TGAGCCCACTGTCCACTA, the remaining target (mRNA or protein) (fraction of control) in the data set with PLA2G4A came to 0.26. On to TGCAGGTCCAAGTTATTA, for which the remaining target (mRNA or protein) (fraction of control) with SMAD3 was 0.81.

TGCATCGTGCGGGCTCTT came in with a remaining target (mRNA or protein) (fraction of control) with SMAD3 of 0.43. As to TGCCCCAGACACCCATTA, the remaining target (mRNA or protein) (fraction of control) in the data set with PLA2G4A is 0.88. Regarding TGCCCGTTCTGCTCGCCC, the remaining target (mRNA or protein) (fraction of control) in the data set with SMAD3 amounted to 0.63. The sequence TGCTACTGTCACTAAGGC yielded a remaining target (mRNA or protein) (fraction of control) in the data set with SMAD1 of 0.12.

With TGCTAGTAACATCCTGGC, the remaining target (mRNA or protein) (fraction of control) in the data set with SMAD1 was found to be 0.25.

TGCTCGCCCTTCTTCCAG: in the data set with SMAD3, the remaining target (mRNA or protein) (fraction of control) worked out at 0.61. As for TGCTGACCTGGGCCGGGA, the remaining target (mRNA or protein) (fraction of control) in the data set with EGR1 is at least 1. In turn, TGCTGTCGTTGGATGGCA displayed a remaining target (mRNA or protein) (fraction of control) with EGR1 of at least 1. Regarding TGGATATGGTGAAATAAA, in the data set with SMAD1, the remaining target (mRNA or protein) (fraction of control) was 0.83. Regarding TGGGTGCAGGCTCCAGGG, the remaining target (mRNA or protein) (fraction of control) with EGR1 is at least 1. On to TGGGTTGAGTAGAGTTCC, for which the remaining target (mRNA or protein) (fraction of control) with SMAD3 turned out to be 0.53. In the case of TGTTTGTGTCCATCGGCT, the remaining target (mRNA or protein) (fraction of control) in the data set with SMAD1 was found to be 0.47.

With TTCACCAAAGCATCAACA, the remaining target (mRNA or protein) (fraction of control) in the data set with SMAD1 was 0.18. With TTGGTCACAGAGGTCAAG, the remaining target (mRNA or protein) (fraction of control) with SMAD1 stood at 0.15. TTGTGAACCAGAAACGCC yielded a remaining target (mRNA or protein) (fraction of control) with PLA2G4A of 0.08. Sequence TTGTTTAAATTTCTGAAT yielded a remaining target (mRNA or protein) (fraction of control) with SMAD1 of 0.5. TTTACAGAGAAGTCTCTT registered a remaining target (mRNA or protein) (fraction of control) with SMAD1 of at least 1. TTTAGCCCACTTTTCTGC: in the data set with PLA2G4A, the remaining target (mRNA or protein) (fraction of control) is 0.07.

On to TTTGTCCTAAGTTACGGA, for which, in the data set with SMAD1, the remaining target (mRNA or protein) (fraction of control) amounted to 0.64.

For the origin of these results see the OligoGym collection.
